The values that follow come from US20200283728A1, “MODIFIED T CELLS AND USES THEREOF” (MUSC FOUNDATION FOR RESEARCH DEVELOPMENT, priority 2017, published 2020).

Type in all cases: cell-based, mouse
The subject of assay [1] is ICOS-activated Th17 cells. The experiment in a line: Cytokine production of ICOS-stimulated TRP-1 Th17 cells expanded with inhibitors (intracellular FACS). The settings on record: 8 days of expansion, vs un-treated Th17 cells. How it is done: (§1) Expansion of Th17 cells with Wnt/β-catenin and PI3K inhibitors in vitro: TRP-1 splenocytes were activated with irradiated (10Gy) C57BL/6 splenocytes pulsed with TRP-1 peptide (1 μM) added at a 5:1 ratio in 24-well plates (1 mL media containing 1.5×10^6 cells/well). TRP-1 splenocytes were co-stimulated with soluble ICOS agonist (Clone 398.4A, BioLegend) and polarized toward Th17 phenotype as describe above. For in vitro expansion from day 0 of culture 10 μM Ly294002 (Cayman Chemical) or 10 μM CAL-101 (Selleckchem) and/or 60 μM indomethacin (Sigma-Aldrich) was added. Also dimethylosulfoxide 0.01% (Sigma-Aldrich) was added as a control. Th17 cultures were also supplemented with hrIL-2 (100 IU/mL) and rmIL-23 ([…]; R&D). Medium, including cytokines and inhibitors was refreshed every 2-3 days.
Surface staining of Th17 cells was performed with anti-CD4-APCCy7, anti-Vβ14-FITC (BD Biosciences) anti-CD62L-APC, anti-CD44-PerCPCy5.5, anti-CCR6-PE, anti-CD69-PECy7, anti-CCR7-PE, anti-CD27-PE, anti-CD28-PerCPCy5.5, anti-ICOS-PE and anti-CD25-PECy7/FITC (BioLegend) and viability stain (Invitrogen) on day 8. For all intracellular staining of cytokines (anti-IL-17 PerCPCy5.5, anti-IFN-γ-v450, anti-IL-2-FITC, anti-IL-21-APC, anti-IL-22-PE, anti-TNF-α-FITC; BioLegend) and transcription factors (anti-RORγt-APC, anti-cMaf-PerCPCy5.5, anti-STAT-3-PE, anti-FoxP3-FITC/PE, anti-T-bet-v450; eBiosciences), cells were stimulated for 4-5 h with 50 ng/mL PMA and 750 ng/mL ionomycin (Sigma-Aldrich). Additional antibodies used include: CD127-PECy7 clone A019D5, CD25-APCCy7 clone BC96, CD4-APCCy7 OKT4, CD45RO-APC clone UCHL1, CD62L-FITC clone DREG-56, CD8-PerCPCy5.5 clone SKI, TIM3-PE clone F38-2E2 (biolegend); CCR7-PECy7 clone CCR7, CD8-V450 clone RPA-T8, PD1-FITC clone M1H4, (BD Biosciences). Antibodies used for mouse cell analysis: CD127-PE/V450 clone A7R34, CD25-FITC clone 7D4, CD44-PerCPCy5.5/FITC clone IM7, CD69-PECy7 clone HI.2F3, CD8-PerCPCy5.5 clone 53-6.7, CD8-PECy7 clone YTS156.7.7, PD1-PerCPCy5.5 clone 29F.1A12 V[…]13-PE/APC clone MR12-3/MR12-4 (Biolegend), CD4-APCCy7 clone RM4-5, CD62L-APC clone MEL-14, KLRG1-APC/V450 clone 2F1 (BD). After 1 h, Monensin (BioLegend) was added per manufacturer's instructions. After surface staining, intracellular staining for cytokines and transcription factors was performed using Fixation and Permeabilization buffers (BioLegend) and Foxp3 Staining Buffers (eBioscience), respectively. Flow cytometry acquisition was performed on a FACSVerse or Accuri (BD Bioscience). Data were analyzed with FlowJo software (TreeStar). For experiments with sorted cells, CD8^+Vb13^+ T cells were sorted from pmel-1 cultures using Dynabeads untouched mouse CD8^+ T cell kit (Invitrogen) and a FACSAria cell sorting machine (BD Biosciences).

Assay [2] has as its system ICOS-activated Th17 cells. As to the kind of experiment: Memory and regulatory phenotype of ICOS-stimulated Th17 cells expanded with inhibitors (flow cytometry). As to conditions: day 8 in vitro. The method, then:
as §1
Surface staining of Th17 cells was performed with anti-CD4-APCCy7, anti-Vβ14-FITC (BD Biosciences) anti-CD62L-APC, anti-CD44-PerCPCy5.5, anti-CCR6-PE, anti-CD69-PECy7, anti-CCR7-PE, anti-CD27-PE, anti-CD28-PerCPCy5.5, anti-ICOS-PE and anti-CD25-PECy7/FITC (BioLegend) and viability stain (Invitrogen) on day 8. For all intracellular staining of cytokines (anti-IL-17 PerCPCy5.5, anti-IFN-γ-v450, anti-IL-2-FITC, anti-IL-21-APC, anti-IL-22-PE, anti-TNF-α-FITC; BioLegend) and transcription factors (anti-RORγt-APC, anti-cMaf-PerCPCy5.5, anti-STAT-3-PE, anti-FoxP3-FITC/PE, anti-T-bet-v450; eBiosciences), cells were stimulated for 4-5 h with 50 ng/mL PMA and 750 ng/mL ionomycin (Sigma-Aldrich). Additional antibodies used include: CD127-PECy7 clone A019D5, CD25-APCCy7 clone BC96, CD4-APCCy7 OKT4, CD45RO-APC clone UCHL1, CD62L-FITC clone DREG-56, CD8-PerCPCy5.5 clone SKI, TIM3-PE clone F38-2E2 (biolegend); CCR7-PECy7 clone CCR7, CD8-V450 clone RPA-T8, PD1-FITC clone M1H4, (BD Biosciences). […] Data were analyzed with FlowJo software (TreeStar). […]
On the technique in general: A flow cytometer gives signals particle by particle.

Assay [3] concerns ICOS-activated Th17 cells. As to the kind of experiment: Cytokine secretion of Th17 cells three days after priming (ELISA). The settings on record: day 3 after priming. How it is done:
as §1, with “TRP-1” left out, “days. Cytokine levels were measured using the mouse IL-17A, INF-γ, IL-2, IL-9, IL-10, IL-21, IL-22, CCL-20, GM-CSF ELISA kits (R&D) following the manufacturer's protocol.” for “days.”

Where [4] appears, read: CAL-101 10 μM, Indo 60 μM, Ly294002 10 μM.

With `COc1ccc2c(c1)c(CC(=O)O)c(C)n2C(=O)c1ccc(Cl)cc1` [Indo, indomethacin], in assay [1] (setting [4]), the IFN-γ production result is on record as “did not impact” and the IL-17A production entry is given as “did not impact”. For the same molecule, in assay [1], the IL-22 production entry was “increased” and the TNF-α production result is listed as “increased”. Besides, the “central memory phenotype (CD44^highCD62L^high)” value in assay [2] was “did not impact their memory phenotype”. Moreover, in assay [3], the CCL-20 secretion result is on record as “decreased”, the GM-CSF secretion result is recorded as “no difference”, the IFN-γ secretion result was “decreased” and the IL-2 secretion result was “no difference”. Moreover, in assay [3], the IL-9 secretion entry was “decreased”, the IL-10 secretion entry is “no difference”, the IL-17A secretion result is on record as “decreased” and the IL-21 secretion entry was “no difference”.
